Here are results for four compounds from PMC11417357, “The SAVED domain of the type III CRISPR protease CalpL is a ring nuclease” (Nucleic Acids Research, 2024).

Residue numbers refer to the chain shown, from its start. Read-outs that look alike come from different tables or passages of the source.

Experiment in all cases: SPR, single-cycle kinetics, […] model, CalpL amine-coupled to CM5 chip
What all share (assay type): binding
What all share (conditions): 20 mM Tris pH 8, 50 mM NaCl, 0.05% Tween20, 25 °C

Test [1] concerns the target T1, CalpL (Sulfurihydrogenibium sp. YO3AOP1, UniProt Z9OF32SUC9, H345A).
T1 construct: codon-optimized CalpL, Lon protease domain plus C-terminal SAVED domain; N-terminal 10xHis-TEV tag removed by TEV protease; expressed in E. coli BL21(DE3); monomer that oligomerizes with cA4
T1 sequence (Z9OF32SUC9 2-496 H345A): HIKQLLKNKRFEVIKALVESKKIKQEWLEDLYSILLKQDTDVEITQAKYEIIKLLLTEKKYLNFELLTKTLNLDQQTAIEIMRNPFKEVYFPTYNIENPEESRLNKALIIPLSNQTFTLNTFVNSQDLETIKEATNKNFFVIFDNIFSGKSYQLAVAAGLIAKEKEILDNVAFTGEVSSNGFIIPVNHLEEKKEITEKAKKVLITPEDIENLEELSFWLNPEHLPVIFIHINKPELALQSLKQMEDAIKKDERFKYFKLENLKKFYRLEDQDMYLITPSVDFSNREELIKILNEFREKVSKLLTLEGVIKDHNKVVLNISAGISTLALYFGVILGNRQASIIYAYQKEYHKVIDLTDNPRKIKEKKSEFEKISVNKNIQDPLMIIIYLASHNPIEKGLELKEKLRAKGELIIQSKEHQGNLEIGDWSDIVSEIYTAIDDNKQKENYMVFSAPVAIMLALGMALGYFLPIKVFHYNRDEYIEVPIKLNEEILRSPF

The target in test [2] is T2, CalpL (Sulfurihydrogenibium sp. YO3AOP1, UniProt Z9OF32SUC9, H474A).
T2 construct: codon-optimized CalpL, Lon protease domain plus C-terminal SAVED domain; N-terminal 10xHis-TEV tag removed by TEV protease; expressed in E. coli BL21(DE3); monomer that oligomerizes with cA4
T2 sequence (Z9OF32SUC9 2-496 H474A): T1 sequence (Z9OF32SUC9 2-496 H345A) with A344H, H473A

Test [3] addresses T3, CalpL (Sulfurihydrogenibium sp. YO3AOP1, UniProt Z9OF32SUC9).
T3 construct: codon-optimized CalpL, Lon protease domain plus C-terminal SAVED domain; N-terminal 10xHis-TEV tag removed by TEV protease; expressed in E. coli BL21(DE3); monomer that oligomerizes with cA4
T3 sequence (Z9OF32SUC9 2-496): T1 sequence (Z9OF32SUC9 2-496 H345A) with A344H

Test [4] concerns the target T3, CalpL. This is another data set of the same source.
The target in test [5] is T4, CalpL (Sulfurihydrogenibium sp. YO3AOP1, UniProt Z9OF32SUC9, H392A).
T4 construct: codon-optimized CalpL, Lon protease domain plus C-terminal SAVED domain; N-terminal 10xHis-TEV tag removed by TEV protease; expressed in E. coli BL21(DE3); monomer that oligomerizes with cA4
T4 sequence (Z9OF32SUC9 2-496 H392A): T1 sequence (Z9OF32SUC9 2-496 H345A) with A344H, H391A

For test [6], the target named is T5, CalpL (Sulfurihydrogenibium sp. YO3AOP1, UniProt Z9OF32SUC9, R361E).
T5 construct: codon-optimized CalpL, Lon protease domain plus C-terminal SAVED domain; N-terminal 10xHis-TEV tag removed by TEV protease; expressed in E. coli BL21(DE3); monomer that oligomerizes with cA4
T5 sequence (Z9OF32SUC9 2-496 R361E): T1 sequence (Z9OF32SUC9 2-496 H345A) with A344H, R360E

Test [7] addresses T6, CalpL (Sulfurihydrogenibium sp. YO3AOP1, UniProt Z9OF32SUC9, R361A).
T6 construct: codon-optimized CalpL, Lon protease domain plus C-terminal SAVED domain; N-terminal 10xHis-TEV tag removed by TEV protease; expressed in E. coli BL21(DE3); monomer that oligomerizes with cA4
T6 sequence (Z9OF32SUC9 2-496 R361A): T1 sequence (Z9OF32SUC9 2-496 H345A) with A344H, R360A

As for `Nc1ncnc2c1ncn2[C@@H]1O[C@@H]2COP(=O)(O)O[C@H]3[C@@H](F)[C@H](n4cnc5c(N)ncnc54)O[C@@H]3COP(=O)(O)O[C@H]3[C@@H](F)[C@H](n4cnc5c(N)ncnc54)O[C@@H]3COP(=O)(O)O[C@H]3[C@@H](F)[C@H](n4cnc5c(N)ncnc54)O[C@@H]3COP(=O)(O)O[C@H]2[C@H]1F` [2′F-cA4], the Kd on CalpL [1] worked out at 18.9 nM; at CalpL [2] it was 0.224 nM; at CalpL [3] (non-hydrolysable analogue, read-out: KD), 1 nM.
For `Nc1ncnc2c1ncn2[C@@H]1O[C@H](COP(=O)(O)O[C@H]2[C@@H](O)[C@H](n3cnc4c(N)ncnc43)O[C@@H]2CO)[C@@H](OP(=O)(O)O)[C@H]1O` [A2], on CalpL [4], the KD entry is “decrease in affinity of CalpL towards A4 and A2 compared to cA4”.
For the compound `Nc1ncnc2c1ncn2[C@@H]1O[C@H](COP(=O)(O)O[C@H]2[C@@H](O)[C@H](n3cnc4c(N)ncnc43)O[C@@H]2COP(=O)(O)O[C@H]2[C@@H](O)[C@H](n3cnc4c(N)ncnc43)O[C@@H]2COP(=O)(O)O[C@H]2[C@@H](O)[C@H](n3cnc4c(N)ncnc43)O[C@@H]2CO)[C@@H](OP(=O)(O)O)[C@H]1O` [A4], the Kd came out at 1.72 nM on CalpL [5] and 158 nM on CalpL [3] (apparent, read-out: apparent KD).
Take `Nc1ncnc2c1ncn2[C@@H]1O[C@@H]2COP(=O)(O)O[C@H]3[C@@H](O)[C@H](n4cnc5c(N)ncnc54)O[C@@H]3COP(=O)(O)O[C@H]3[C@@H](O)[C@H](n4cnc5c(N)ncnc54)O[C@@H]3COP(=O)(O)O[C@H]3[C@@H](O)[C@H](n4cnc5c(N)ncnc54)O[C@@H]3COP(=O)(O)O[C@H]2[C@H]1O` [cA4]: the Kd at CalpL [1] is 68.7 nM; at CalpL [6], 1 nM; on CalpL [7] it was 0.87 nM; on CalpL [2], 48.6 nM; at CalpL [5] it was 0.0308 nM; on CalpL [3] (apparent: ligand cleaved on the chip, depends on immobilization density, read-out: apparent KD), 50 nM.
